The values below come from patent publication US20060084704A1, “Methods and compositions for enhancing degradation of nuclear receptor transcription factors and uses thereof” (priority 2004, published 2006).

Assay [1] addresses T1, wild type androgen receptor (Homo sapiens, UniProt P10275).
T1 construct: expressed in transfected cells; host or cells: CV-1 (green monkey kidney cells lacking an androgen receptor)
T1 sequence (P10275 1-920): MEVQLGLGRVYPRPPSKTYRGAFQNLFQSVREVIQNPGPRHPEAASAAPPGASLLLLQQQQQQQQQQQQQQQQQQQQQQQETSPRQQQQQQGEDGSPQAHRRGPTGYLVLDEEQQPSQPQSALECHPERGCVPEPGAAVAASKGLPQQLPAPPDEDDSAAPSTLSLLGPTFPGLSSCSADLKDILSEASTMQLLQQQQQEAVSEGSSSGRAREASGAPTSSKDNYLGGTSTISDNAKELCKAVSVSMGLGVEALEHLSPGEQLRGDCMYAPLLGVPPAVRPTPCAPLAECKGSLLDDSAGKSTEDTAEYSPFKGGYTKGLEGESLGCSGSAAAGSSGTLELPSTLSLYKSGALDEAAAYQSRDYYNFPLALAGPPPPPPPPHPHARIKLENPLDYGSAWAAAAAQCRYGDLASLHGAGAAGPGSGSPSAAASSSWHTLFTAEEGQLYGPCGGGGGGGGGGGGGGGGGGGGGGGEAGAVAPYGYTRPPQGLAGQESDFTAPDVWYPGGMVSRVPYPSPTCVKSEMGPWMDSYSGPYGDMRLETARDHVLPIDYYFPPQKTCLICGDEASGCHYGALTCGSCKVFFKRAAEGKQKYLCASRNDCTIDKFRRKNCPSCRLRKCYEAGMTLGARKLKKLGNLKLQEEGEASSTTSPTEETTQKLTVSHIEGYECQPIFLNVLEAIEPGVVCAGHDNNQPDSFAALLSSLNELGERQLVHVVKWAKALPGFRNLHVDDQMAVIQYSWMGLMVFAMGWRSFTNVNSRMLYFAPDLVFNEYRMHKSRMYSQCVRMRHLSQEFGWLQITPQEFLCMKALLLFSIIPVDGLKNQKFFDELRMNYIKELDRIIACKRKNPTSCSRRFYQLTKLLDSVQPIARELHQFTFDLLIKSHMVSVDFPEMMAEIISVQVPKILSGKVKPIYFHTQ
Description: Androgen receptor transactivation assay in CV-1 cells (MMTV-luciferase reporter). Format: cell-based. The conditions noted are these: CV-1 cells transfected with wild type AR, DHT 1 nM, JC9 0 uM to 7.5 uM. From the text: Prostate cancer cells, non-prostate tumor cells, and normal cells can be used in this transient transfection assay, which measures transactivation of the androgen receptor (AR) and can be used to detect a reduction of AR activity caused by AR degradation. In the provided non-limiting example, CV-1 (green monkey kidney cells lacking an androgen receptor) and LNCaP cells (prostate cancer cells containing an endogenous mutant AR), were transfected with a plasmid carrying an androgen response element (ARE) and a reporter gene.
Both the CV-1 and LNCaP cells (obtained from ATCC, Manassas, Va.) were maintained in […] medium supplemented with penicillin (25 units/millilter), streptomycin (25 micrograms/milliliter), and 10% heat-inactivated fetal bovine serum (FBS). Cells were plated in 35-millimeter dishes at a concentration of 1-2×10^5cells/well and cultured at 37 degrees Celsius in an incubator under a 5% carbon dioxide atmosphere. […] The cells were lysed, and luciferase activity of the lysate was measured with the Dual-Luciferase Reporter Assay System (Promega, Madison, Wis.). Data were expressed as relative luciferase activity normalized to the internal luciferase positive control. […]
A general note: In a reporter assay the amount or activity of a reporter protein is the signal.

Assay [2] deals with prostate-specific antigen (PSA). In words: Western blot of LNCaP cell lysates, PSA. Format: cell-based, human. The conditions noted are these: 1 or 2 micromolar, 24 hours, presence or absence of DHT. How it is done:
Human prostate cancer LNCaP cells and T47D cells were plated at a density of 7×10^5 cells per 60 millimeter tissue culture dish in […] (RPMI) medium containing 10% FBS. The medium was changed to RPMI or DME medium containing 10% charcoal-stripped serum 24 hours later to deplete cellular androgens or estrogens. After another 24 hours, treatment with the test compounds began. The test dose of JC15 was 1 or 2 micromolar and the test does of JC9 was 1, 5 and 10 micromolar. LNCap cells also received dihydrotestosterone (DHT) (3 nanomolar). Control cells received a corresponding amount of the vehicle, dimethylsulfoxide (DMSO) (<0.04%) for an equivalent exposure time. Cells were incubated with JC15 for 24 or 48 hours, and were lysed in 250 microliters of 1×SDS/PAGE loading buffer. Approximately 40 micrograms of total cellular protein was loaded in each lane of a pre-cast gel (NuPAGE, Invitrogen). Protein separation and transfer were performed following the manufacturer's instructions.
For the prostate cell lysates, androgen receptor (AR) protein was visualized by incubating the resultant membranes with an anti-AR antibody (BD-PharMingen), followed by chemiluminescence detection (ECL Plus, Amersham). […] The resultant protein signals were quantified using densitometry and NIH ImageJ software.
On the technique in general: A western blot detects proteins with antibodies after separation by electrophoresis.

In the case of `COc1ccc(C=CC(=O)C=C(O)C=Cc2ccc(OC)c(OC)c2)cc1OC` [JC9, 5-hydroxy-1,7-bis(3,4-dimethoxyphenyl)-1,4,6-heptatrien-3-one], the “DHT-induced androgen receptor transcriptional activation (relative luciferase activity)” value in assay [1] is recorded as “capable of inhibiting DHT-induced androgen receptor transcriptional activation in a dose dependent manner”. Regarding `CCOC(=O)CCC(C(=O)C=Cc1ccc(O)c(OC)c1)C(=O)C=Cc1ccc(O)c(OC)c1` (centres unmarked) [JC15, 7-(4-hydroxy-3-methoxyphenyl)-4-[3-(4-hydroxy-3-methoxyphenyl)acryloyl]-5-oxo-hept-6-enoic acid ethyl ester], in assay [2], the PSA levels entry is on record as “decreased”.
